The target of one experiment is MAO-B (Homo sapiens (Human), UniProt P27338). The experiment can be described thus: biochemical.
Another experiment deals with MAO-A (Homo sapiens (Human), UniProt P21397). In words: biochemical.
MAO-A, sequence (P21397 whole entry): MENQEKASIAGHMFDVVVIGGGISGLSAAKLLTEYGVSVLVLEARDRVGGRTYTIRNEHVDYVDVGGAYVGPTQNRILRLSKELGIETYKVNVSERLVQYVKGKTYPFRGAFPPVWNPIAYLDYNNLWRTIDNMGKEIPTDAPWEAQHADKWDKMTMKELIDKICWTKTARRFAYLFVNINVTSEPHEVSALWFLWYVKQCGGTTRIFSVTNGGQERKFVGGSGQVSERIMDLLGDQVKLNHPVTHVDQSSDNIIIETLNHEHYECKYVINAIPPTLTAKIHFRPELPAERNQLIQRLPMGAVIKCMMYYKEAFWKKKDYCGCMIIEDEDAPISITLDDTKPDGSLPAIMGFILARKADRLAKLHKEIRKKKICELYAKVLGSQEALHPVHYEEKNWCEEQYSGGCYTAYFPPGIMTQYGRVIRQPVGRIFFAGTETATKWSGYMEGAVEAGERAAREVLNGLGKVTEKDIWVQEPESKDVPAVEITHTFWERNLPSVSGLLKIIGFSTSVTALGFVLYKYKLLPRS

MAO-B, sequence (P27338 whole entry): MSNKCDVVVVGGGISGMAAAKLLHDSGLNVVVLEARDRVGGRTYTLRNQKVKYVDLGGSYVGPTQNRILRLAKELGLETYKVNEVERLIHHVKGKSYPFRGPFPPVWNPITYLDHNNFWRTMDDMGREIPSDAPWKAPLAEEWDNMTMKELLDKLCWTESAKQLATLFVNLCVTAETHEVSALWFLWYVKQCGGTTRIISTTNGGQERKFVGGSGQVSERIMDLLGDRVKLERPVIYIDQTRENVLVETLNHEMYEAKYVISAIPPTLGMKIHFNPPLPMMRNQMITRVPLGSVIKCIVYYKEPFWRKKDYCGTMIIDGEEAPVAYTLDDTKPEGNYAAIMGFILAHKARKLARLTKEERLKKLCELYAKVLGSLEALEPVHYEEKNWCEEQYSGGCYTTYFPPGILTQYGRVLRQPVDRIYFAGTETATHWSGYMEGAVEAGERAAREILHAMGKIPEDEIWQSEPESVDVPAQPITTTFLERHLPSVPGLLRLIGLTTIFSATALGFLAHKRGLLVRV
Experimental for MAO-B: For MAO-B, the protein was kept between 1.8 and 3.6 ng/ul (Sigma M7441) and kynuramine (Sigma) at 50 uM was used as substrate.

With `C#CCN[C@@H]1CCc2ccccc21` [Rasagiline], the kinact/KI amounted to 7460 M⁻¹ s⁻¹ at MAO-B and 62 M⁻¹ s⁻¹ at MAO-A.

One may read the kinact/KI as the second-order rate constant of inactivation.

The values above are taken from patent US10233178B2, “Arylcyclopropylamine based demethylase inhibitors of LSD1 and their medical use” (priority 2010, dated 2019).
